In paper PMC3985444 (Journal of Chemical Information and Modeling, 2014):

Columns and labels:
human 5-HT1A receptor = molecular target: T1, human 5-HT1A receptor (Homo sapiens, UniProt P08908); assay: Radioligand competition binding assay
T1 sequence (P08908 1-422): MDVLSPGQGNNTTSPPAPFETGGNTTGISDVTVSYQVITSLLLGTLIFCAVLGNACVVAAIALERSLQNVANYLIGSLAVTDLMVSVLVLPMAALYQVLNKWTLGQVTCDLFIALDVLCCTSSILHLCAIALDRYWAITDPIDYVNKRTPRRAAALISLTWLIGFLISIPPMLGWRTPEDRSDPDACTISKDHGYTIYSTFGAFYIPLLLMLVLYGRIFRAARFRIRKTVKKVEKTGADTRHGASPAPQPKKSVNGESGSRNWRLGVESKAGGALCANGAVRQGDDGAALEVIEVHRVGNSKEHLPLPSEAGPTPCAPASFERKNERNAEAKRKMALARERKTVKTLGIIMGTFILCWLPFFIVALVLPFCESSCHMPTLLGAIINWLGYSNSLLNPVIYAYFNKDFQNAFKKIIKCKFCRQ

dopamine receptors = conditions: cited from earlier work
5-HT2A = conditions: cited from earlier work
5-HT1B = conditions: cited from earlier work
5-HT1D = conditions: cited from earlier work

For `CN1CCCCC1CCN1c2ccccc2Sc2ccc([S+](C)[O-])cc21` (stereo not shown) [Mesoridazine], the Ki (human 5-HT1A receptor) is listed as 33.1 nM, the “binding with dopamine receptors” value (dopamine receptors) is listed as “potent binding” and the “binding with 5-HT2A” value (5-HT2A) is listed as “potent binding”.

Compound `CC[C@@H](CO)NC(=O)[C@@H]1C=C2c3cccc4c3c(cn4C)C[C@H]2N(C)C1` [Methysergide] has a Ki (human 5-HT1A receptor) of 26 nM.

In the case of `CN1C[C@@H](CO)C=C2c3cccc4[nH]cc(c34)C[C@H]21` [ST057540, [(8α)-6-methyl-9,10-didehydroergolin-8-yl]methanol], the “binding to 5-HT1B” value (5-HT1B) is given as “high-affinity binding”, the Ki (human 5-HT1A receptor) is given as 2.3 nM and the “binding to 5-HT1D” value (5-HT1D) is given as “high-affinity binding”.
